Data set [1] can be described thus: Aqueous solubility by concentration-absorbance linearity. Format: physicochemical. Conditions: PBS with 1% DMSO.
Text: Subsequently, the lipophilicity and aqueous solubility of Ru1–Ru9 were investigated.
In data set [2] the test system is triple negative breast cancer (MDA-MB-231). Put plainly: MTT antiproliferative assay, MDA-MB-231. The data set is classed as cell-based, human. Conditions: 72 h. An excerpt:
(§1) Ru3–Ru9 also show a certain selectivity for cancer cells over normal cells, and Ru2, Ru3, Ru5 and Ru9 show higher selectivity index (SI) values than the other complexes.
(§2) PA-BPP was then used to confirm the molecular targets of Ru5 by modifying it with a ‘minimalist’ biorthogonal handle-containing photo-cross-linker. Through our structure–activity relationship analysis and comparison with other ruthenium complexes utilizing phen as the auxiliary ligands with similar coordination structures (using cisplatin as a control), we propose that the β-carboline ligands play an important role in antiproliferative activity. To maintain the binding characteristics of the β-carboline moiety with the targeted biomolecules, we linked the photo-cross-linker to one of the auxiliary ligands of Ru5.
Background: Formazan colour is commonly taken as a measure of viable cells.

A further data set relates to A549 xenograft. The data set can be described thus: A549 xenograft nude mice model. The data set is classed as in vivo. Conditions: 5 mg kg−1, intratumoral injection every 7 days, 14 days, compared with the control groups. The protocol:
Lastly, the in vivo anticancer activity of Ru5 was assessed via a A549 xenograft nude mice model (Fig. 5A). Mice were treated with PBS, cisplatin (5 mg kg^−1) or Ru5 (5 mg kg^−1) for 14 days, during which body weights and tumor volumes were monitored.
Figure 5. […] (A) Schematic illustration of in vivo therapeutic protocol. (B) Graphs of tumor volumes of nude mice after treatment with Ru5 (5 mg kg^−1), cisplatin (5 mg kg^−1) and PBS. The intratumoral injections were performed every 7 days. Data are presented as means ± SD, n = 5. (C) Immunohistochemical analysis of hematoxylin-eosin (H&E) staining in tumor sections from mice with different treatments. Scale bar: 50 μm. (D) Tumors separated from nude mice. (E) The average body weight of the mice in each group during the treatment process. Data are presented as means ± SD, n = 5. (F) H&E staining of the main organs from mice with different treatments. Scale bar: 100 μm.

The test system of the next data set is prostate cancer (PC3). Put plainly: MTT antiproliferative assay, PC3. The data set is classed as cell-based, human. Conditions: 72 h.
Text: as §1, §2

Data set [3] has as its system cervical carcinoma (HeLa). Put plainly: MTT antiproliferative assay, HeLa. The data set is classed as cell-based, human. Conditions: 72 h.
Text: as §1, §2

The test system of a further data set is malignant glioma (U87). The data set can be described thus: MTT antiproliferative assay, U87. Conditions: 72 h. The data set is classed as cell-based, human.
Text: as §1, §2

The subject of data set [4] is human lung fibroblast-like (HLF) cells. Put plainly: MTT antiproliferative assay, HLF. The data set is classed as cell-based. Conditions: 72 h.
Text: as §1, §2

The test system of data set [5] is cisplatin-resistant A549R. The data set can be described thus: MTT antiproliferative assay, A549R. Format: cell-based, human. Conditions: 72 h.
Text: as §1, §2

The subject of data set [6] is lung adenocarcinoma (A549). Put plainly: MTT antiproliferative assay, A549. Format: cell-based, human. Conditions: for IC50: 72 h; for SI (selectivity index): SI = (IC50 for HLF)/(IC50 for A549).
Text: as §1, §2

Data set [7] has as its target ATPase (mitochondrial ATP synthase). The data set can be described thus: Inhibition of the enzymatic activity of ATPase in vitro. Conditions: read-out: Inhibition constant (Ki). The data set is classed as biochemical. The protocol:
(§3) Figure 1. Validation of ATP5F1 as the molecular target of Ru5. (A) Proteins pulled down by streptavidin from A549 cells treated with Ru5a followed by PAL. The cells were treated with Ru5a (50 μM) for 12 h and irradiated with UV light for 20 min. (B) The top five peptides enriched by Ru5a-mediated PAL were identified with the assistance of SILAC-based chemoproteomic studies. H1F0: H1 histone family member 0; HIST4H4: histone cluster 4 H4; HIST3H2BB: histone cluster 3 H2B family member b; ATP5F1E: ATP synthase F1 subunit epsilon; HIST1H2AJ: histone cluster 1 H2A family member J. (C) Pull-down western blotting analysis of ATPase in A549 cells treated with Ru5a. (D) Cellular Ru content in cells treated with Ru5/Ru5a (20 μM, 12 h) measured by ICP-MS. (E) Impact of Ru5/Ru5a (10 μM) on the thermal stability of ATP5F1 measured by CETSA. (F) Impact on the anticancer activities of Ru5/Ru5a against wild type and ATPase knocking down (by siRNA) A549 cells. The relative cellular viability was calculated using the cells without drug treatment in each group as the control group. (G) Inhibition of Ru5/Ru5a on the enzymatic activity of ATPase. (-)-blebbistatin was used as the positive control. (H) Molecular docking of Ru5 with ATPase (PDB: 3ZIA). The red dashes indicate the hydrogen bonds formed between Ru5 and the amino acid residues (SER38 and GLN39). The yellow dashes indicate the hydrophobic interaction between Ru5 and the amino acid residues (ASN15 and GLN19). Data are presented as means ± SD from three independent experiments. TEXT PRINTED IN THE PICTURE: (B) Ru5a: Log2 (fold change) (Ru5a/DMSO): 1.43 (Protein name: H1F0); Log2 (fold change) (Ru5a/DMSO): 1.23 (Protein name: HIST4H4); Log2 (fold change) (Ru5a/DMSO): 1.22 (Protein name: HIST3H2BB); Log2 (fold change) (Ru5a/DMSO): 1.21 (Protein name: ATP5F1E); Log2 (fold change) (Ru5a/DMSO): 1.12 (Protein name: HIST1H2AJ) DOUBTS OF THE COPYIST ABOUT THIS PICTURE: Panel B: the table rows are proteins enriched by Ru5a, not separate substances. […]

The test system of another data set is mitochondria. Put plainly: Subcellular Ru content by ICP-MS. Conditions: 20 μM, 12 h. Format: cell-based. The protocol:
as §3, with “GLN39).” for “GLN39). The yellow dashes indicate the hydrophobic interaction between Ru5 and the amino acid residues (ASN15 and GLN19). Data are presented as means ± SD from three independent experiments. TEXT PRINTED IN THE PICTURE: (B) Ru5a: Log2 (fold change) (Ru5a/DMSO): 1.43 (Protein name: H1F0); Log2 (fold change) (Ru5a/DMSO): 1.23 (Protein name: HIST4H4); Log2 (fold change) (Ru5a/DMSO): 1.22 (Protein name: HIST3H2BB); Log2 (fold change) (Ru5a/DMSO): 1.21 (Protein name: ATP5F1E); Log2 (fold change) (Ru5a/DMSO): 1.12 (Protein name: HIST1H2AJ) DOUBTS OF THE COPYIST ABOUT THIS PICTURE: Panel B: the table rows are proteins enriched by Ru5a, not separate substances.”

Another data set concerns ATP5F1. Put plainly: Cellular thermal shift assay (CETSA). The data set is classed as cell-based. Conditions: 10 μM. The protocol:
as §3, with “GLN39).” for “GLN39). The yellow dashes indicate the hydrophobic interaction between Ru5 and the amino acid residues (ASN15 and GLN19). Data are presented as means ± SD from three independent experiments. TEXT PRINTED IN THE PICTURE: (B) Ru5a: Log2 (fold change) (Ru5a/DMSO): 1.43 (Protein name: H1F0); Log2 (fold change) (Ru5a/DMSO): 1.23 (Protein name: HIST4H4); Log2 (fold change) (Ru5a/DMSO): 1.22 (Protein name: HIST3H2BB); Log2 (fold change) (Ru5a/DMSO): 1.21 (Protein name: ATP5F1E); Log2 (fold change) (Ru5a/DMSO): 1.12 (Protein name: HIST1H2AJ) DOUBTS OF THE COPYIST ABOUT THIS PICTURE: Panel B: the table rows are proteins enriched by Ru5a, not separate substances.”

The subject of the next data set is A549 cells. The data set can be described thus: Anticancer activity in wild type vs ATPase siRNA knockdown cells. Conditions: compared to wild-type cells. Format: cell-based, human. The protocol: as §3, with “GLN39).” for “GLN39). The yellow dashes indicate the hydrophobic interaction between Ru5 and the amino acid residues (ASN15 and GLN19). Data are presented as means ± SD from three independent experiments. TEXT PRINTED IN THE PICTURE: (B) Ru5a: Log2 (fold change) (Ru5a/DMSO): 1.43 (Protein name: H1F0); Log2 (fold change) (Ru5a/DMSO): 1.23 (Protein name: HIST4H4); Log2 (fold change) (Ru5a/DMSO): 1.22 (Protein name: HIST3H2BB); Log2 (fold change) (Ru5a/DMSO): 1.21 (Protein name: ATP5F1E); Log2 (fold change) (Ru5a/DMSO): 1.12 (Protein name: HIST1H2AJ) DOUBTS OF THE COPYIST ABOUT THIS PICTURE: Panel B: the table rows are proteins enriched by Ru5a, not separate substances.”

Results on eight compounds are retold here after publication PMC11304990, “Identification of mitochondrial ATP synthase as the cellular target of Ru-polypyridyl-β-carboline complexes by affinity-based protein profiling” (National Science Review, 2024).

Regarding `F[P-](F)(F)(F)(F)F.F[P-](F)(F)(F)(F)F.[Ru+2].c1ccc(-c2ccnc3c2ccc2c(-c4ccccc4)ccnc23)cc1.c1ccc(-c2ccnc3c2ccc2c(-c4ccccc4)ccnc23)cc1.c1ccc2c(c1)[nH]c1c(-c3ncc[nH]3)nccc12` [Ru6], the Highest solubility entry in data set [1] is “lower than 40 μM”.
`N.N.[Cl][Pt][Cl]` [Cisplatin, reference compound]: the half-maximal inhibitory concentration (IC50) is 9 ± 0.2 µM in data set [2]; 13.1 ± 2.7 µM in the data set on prostate cancer (PC3); 10.3 ± 1.3 µM in data set [3]; 14.8 ± 1.2 µM in the data set on malignant glioma (U87); 15.4 ± 1.1 µM in [4]; 28.1 ± 4.2 µM in [5]. Further, in data set [6], the IC50 worked out at 5.9 ± 1 µM. For the same compound, the “Tumor growth inhibitory rate” value in the data set on A549 xenograft is on record as about 74.4%. In addition, in data set [6], the “SI (selectivity index)” value was determined as 2.6.
On to `Cc1ccc2c(c1)C(=O)C1(O)CCN(c3ccccc3)C1=N2` (single isomer, unassigned; (-)) [(-)-blebbistatin, reference compound], for which the Ki in data set [7] was determined as 3.3 ± 0.5 µM.
Consider `F[P-](F)(F)(F)(F)F.F[P-](F)(F)(F)(F)F.[Ru+2].c1ccc(-c2ccnc3c2ccc2c(-c4ccccc4)ccnc23)cc1.c1ccc(-c2ccnc3c2ccc2c(-c4ccccc4)ccnc23)cc1.c1ccc2[nH]c(-c3nccc4c3[nH]c3ccccc34)nc2c1` [Ru9], for which, in data set [1], the Highest solubility result is “lower than 40 μM”. Also, the “SI (selectivity index)” value in data set [6] is listed as “higher”.
On to `C#CCCC1(CCNC(=O)c2cc3cccnc3c3ncccc23)N=N1.F[P-](F)(F)(F)(F)F.F[P-](F)(F)(F)(F)F.[Ru+2].c1ccc2c(c1)[nH]c1c(-c3ncc[nH]3)nccc12.c1cnc2c(c1)ccc1cccnc12` [Ru5a], for which the IC50 in [2] came to 8.4 ± 0.6 µM; in the data set with prostate cancer (PC3), 3.4 ± 0.6 µM; in data set [3], 3.8 ± 0.1 µM; in the data set on malignant glioma (U87), 13.4 ± 0.4 µM; in [4], 23.2 ± 0.3 µM; in data set [5] it was 4.2 ± 0.6 µM. Besides, the IC50 in [6] amounted to 2.5 ± 0.4 µM. Moreover, the “Subcellular location (cellular Ru content)” value with mitochondria is listed as “mainly located in mitochondria”. Further, the “Thermal stability of ATP5F1” value in the data set on ATP5F1 was “increased”. In addition, the inhibition constant (Ki) in data set [7] was 8.1 ± 1.5 µM. In the data set on A549 cells, the “Effect of siRNA-mediated knockdown of ATPase on anticancer effects” value is “alleviates”. Besides, the “SI (selectivity index)” value in data set [6] stood at 9.3.
Take `F[P-](F)(F)(F)(F)F.F[P-](F)(F)(F)(F)F.[Ru+2].c1ccc2nc(-c3nccc4c3[nH]c3ccccc34)ccc2c1.c1cnc2c(c1)ccc1cccnc12.c1cnc2c(c1)ccc1cccnc12` [Ru2]: the “Linear relationship between absorbance and concentration up to” value in [1] is “at least 100 μM”. In addition, the “SI (selectivity index)” value in data set [6] is “higher”.
With `F[P-](F)(F)(F)(F)F.F[P-](F)(F)(F)(F)F.[Ru+2].c1ccc2[nH]c(-c3nccc4c3[nH]c3ccccc34)nc2c1.c1cnc2c(c1)ccc1cccnc12.c1cnc2c(c1)ccc1cccnc12` [Ru8], the “Linear relationship between absorbance and concentration up to” value in data set [1] is reported as “at least 100 μM”.
Take `F[P-](F)(F)(F)(F)F.F[P-](F)(F)(F)(F)F.[Ru+2].c1ccc(-c2ccnc3c2ccc2c(-c4ccccc4)ccnc23)cc1.c1ccc(-c2ccnc3c2ccc2c(-c4ccccc4)ccnc23)cc1.c1ccc2nc(-c3nccc4c3[nH]c3ccccc34)ccc2c1` [Ru3]: the Highest solubility entry in [1] is “lower than 40 μM”. The “SI (selectivity index)” value in data set [6] is recorded as “higher”.

For orientation: IC50 means the point on the concentration scale where inhibition reaches its midpoint. One may read the Ki as the equilibrium dissociation constant of an inhibitor or competing ligand from its target.
